Experiments:
HTT mRNA = experiment: Splicing RT-qPCR assay, HTT canonical (CJ) and alternative (AJ) junction mRNA; assay type: cell-based; settings: Homo sapiens, A673 or K562 cells, 24 hours; for IC50: decrease in canonical junction mRNA; for AC50: increase in alternative junction mRNA
How it was run: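 A673 or K562 cells were treated 24 h at 37 °C with compounds in an 11-point 3-fold dilution series (top final 10 uM, DMSO ≤0.25%). Lysates were analysed by one-step RT-qPCR for canonical (CJ) and alternative-exon (AJ) junction isoforms, normalized to GAPDH, GUSB or PPIA.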

HiBiT-tagged MYB protein = experiment: HiBiT protein abundance assay, MYB (K562 HiBiT knock-in cells); assay type: cell-based, human; settings: 24 hours
How it was run: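 K562 cells with endogenous HiBiT knock-in tag, 10-point 3-fold dilutions (top 10 μM final, ≤0.25% DMSO), 24 h at 37 °C. Lytic Nano-Glo HiBiT luminescence, normalized to DMSO and unmodified K562 baselines; IC50 is concentration giving 50% protein abundance from four-parameter fit.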

Row | Structure (SMILES) | IC50 (HTT mRNA) | AC50 (HTT mRNA) | IC50 (HiBiT-tagged MYB protein)
1 | CNC1CCN(c2ccc(C(=O)Nc3cc(F)c4nc(C)cn4c3)c3ncc(OC)nc23)C1 (stereo in doubt) [Compound 227, (R)—N-(8-fluoro-2-methylimidazo[1,2-a]pyridin-6-yl)-2-methoxy-8-(3-(methylamino)pyrrolidin-1-yl)quinoxaline-5-carboxamide 2,2,2-trifluoroacetate] | > 10000 nM | > 10000 nM | 100 to 1000 nM
2 | Cc1cn2cc(NC(=O)c3ccc(N4CCC(NC(C)(C)C)C4)c4ccnnc34)cc(F)c2n1 (stereo not shown) [Compound 109] | 1000 to 10000 nM | 1000 to 10000 nM | 1000 to 10000 nM
3 | Cc1cnc2c(C(=O)Nc3cc(F)c4nc(C)cn4c3)ccc(N3C[C@@H](C)N[C@@H](C)C3)c2n1 [Compound 217, 8-((3R,5S)-3,5-dimethylpiperazin-1-yl)-N-{8-fluoro-2-methylimidazo[1,2-a]pyridin-6-yl}-2-methylquinoxaline-5-carboxamide] |  |  | < 100 nM
4 | CCNC1CCN(c2ccc(C(=O)Nc3cc(F)c4nc(C)cn4c3)c3nc(C)ccc23)CC1 [Compound 228, 5-[4-(ethylamino)piperidin-1-yl]-N-{8-fluoro-2-methylimidazo[1,2-a]pyridin-6-yl}-2-methylquinoline-8-carboxamide] | 100 to 1000 nM | 100 to 1000 nM | < 100 nM
5 | COCCOc1ccc2c(N3CCC(N(C)C)CC3)ccc(C(=O)Nc3cc(F)c4nc(C)cn4c3)c2n1 [Compound 229, 5-[4-(dimethylamino)piperidin-1-yl]-N-{8-fluoro-2-methylimidazo[1,2-a]pyridin-6-yl}-2-(2-methoxyethoxy)quinoline-8-carboxamide] | > 10000 nM | > 10000 nM | < 100 nM
6 | Cc1cn2cc(NCc3ccc(N4CCNCC4)c4ccnnc34)cc(F)c2n1 [Compound 230, 8-fluoro-2-methyl-N-{[5-(piperazin-1-yl)cinnolin-8-yl]methyl}imidazo[1,2-a]pyridin-6-amine] | 1000 to 10000 nM | > 10000 nM | > 10000 nM
7 | CNC1CCN(c2ccc(C(=O)Nc3cc(F)c4nc(C)cn4c3)c3nnccc23)C1 (stereo not shown) [Compound 231, N-{8-fluoro-2-methylimidazo[1,2-a]pyridin-6-yl}-5-[3-(methylamino)pyrrolidin-1-yl] cinnoline-8-carboxamide] | 1000 to 10000 nM | 1000 to 10000 nM | < 100 nM
8 | COCCOc1ccc2c(N3C[C@@H](C)N[C@@H](C)C3)ccc(C(=O)Nc3cc(F)c4nc(C)cn4c3)c2n1 [Compound 232, 5-[(3R,5S)-3,5-dimethylpiperazin-1-yl]-N-{8-fluoro-2-methylimidazo[1,2-a]pyridin-6-yl}-2-(2-methoxyethoxy)quinoline-8-carboxamide] | 1000 to 10000 nM | 1000 to 10000 nM | < 100 nM
9 | CCNC1CCN(c2ccc(C(=O)Nc3cc(F)c4nc(C)cn4c3)c3nc(OCCOC)ccc23)CC1 [Compound 233, 5-[4-(ethylamino)piperidin-1-yl]-N-{8-fluoro-2-methylimidazo[1,2-a]pyridin-6-yl}-2-(2-methoxyethoxy)quinoline-8-carboxamide] | 1000 to 10000 nM | 1000 to 10000 nM | < 100 nM
